Test results: US20090176817A1, “Method of Treatment of Diarrhea-Predominant Irritable Bowel Syndrome in a Subject” (priority 2005, published 2009)

Tested on: diarrhea-predominant IBS subjects
Experiment: Study S241.3.009: weekly diary questions on adequate relief
Type: in vivo, human
Settings: for Overall responder rate, IBS symptoms / Overall responder rate, abdominal pain/discomfort / Overall responder rate, abnormal bowel habits: 26 weeks
Procedure: Study S241.3.009 was a Phase III, a double-blind, placebo-controlled, randomized, multinational study to investigate the safety and efficacy of 2 mg TID of cilansetron over 26 weeks in diarrhea-predominant IBS subjects. The study was conducted in 146 multinational study centers. A total of 1307 subjects consented to participate, and 806 subjects were randomized. A total of 792 subjects were analyzed for efficacy and 799 subjects were analyzed for safety. Diagnosis and main criteria for inclusion were IBS subjects satisfying the Rome I criteria (1992); the diarrhea-predominant sub-population of the Rome II criteria; and a minimum abdominal pain/discomfort, stool frequency and consistency determined during the run-in period. Subjects were treated with cilansetron 2 mg tablets given orally TID or matching placebo tablets given orally TID for 26 weeks.
The primary efficacy parameter was the overall response rate for IBS symptoms, based on the weekly question concerning adequate relief of IBS symptoms (abdominal pain/discomfort, abnormal bowel habits) over the 26 weeks period. A responder was a subject who responded “yes” at least 50% of the time during his/her treatment period, with minimum treatment duration of four weeks. The two main secondary efficacy parameters were overall responder rate based on the weekly question on adequate relief of abdominal pain/discomfort and abnormal bowel habits during the 26-week treatment period. The onset of action of cilansetron was also examined using daily diary data (stool frequency, and ratings of urgency and severity) during the initial 8 weeks of trial participation. An additional key secondary efficacy parameter was the number of months (one month equals four weeks) up to six months (24-weeks) that a subject was a responder for IBS symptoms, where a responder was defined as a subject who answered the weekly question with “yes” at least twice for that month. The responder rate for the weekly diary questions on adequate relief at each month and all months, the adequate relief rate, the number of subjects with adequate relief by week, daily diary questions, IBS-QOL scores, and the interruption of activities were also assessed. Safety was evaluated by physical examination, ECG, vital signs, laboratory evaluations, concomitant medications, and AEs.
Studies S24 1.3.OO6, S24 1.3.0 1 1, and S24 1.3.009 used the following efficacy measurements: • The subjects answered the following three questions with “yes” or “no” using a phone diary at the end of each week: • a) During the last week, did you experience adequate relief of your IBS symptoms, such as abdominal pain, abdominal discomfort, abnormal bowel habits? • b) During the last week, did you experience adequate relief of your abdominal pain and/or discomfort? • c) During the last week, did you experience adequate relief of your abnormal bowel habits? • The subjects rated the following symptoms using the phone diary at the end of each day: • abdominal pain/discomfort (five-point scale); • stool consistency (seven-point Bristol Stool Scale); • stool frequency (number of bowel movements each day); • urgency (five-point scale); • straining (yes or no); • feeling of incomplete defecation (yes or no); • bloating or feeling of abdominal distension (five-point scale). • In Studies S241 A006 and S241.3.009, subjects completed the IBS-QOL Survey at Baseline (Day 1) and at the end of treatment. In Study S24 1.3.0 1 1, subjects completed the IBS-QOL Survey at Baseline (Day 1), at the end of the three-month treatment period, and at the end of rerandomized treatment.
In all three pivotal efficacy studies, the primary and main secondary efficacy parameters were based on the weekly diary questions on adequate relief and included the following: • 1. Number of months (one month equals four weeks) that a subject was a responder for the weekly diary questions on adequate relief. […]

[1] = 2 mg TID, 26-week treatment period, observed case, ITT N = 395
[2] = 2 mg TID, Months 1 to 3, monthly LOCF, ITT N = 395
[3] = 2 mg TID, Months 1 to 3, observed case, ITT N = 395
[4] = 2 mg TID, Months 1 to 6, monthly LOCF, ITT N = 395
[5] = Baseline BMI: <30 kg/m^2, 26-week treatment period, observed case, ITT, 2 mg TID
[6] = Baseline BMI: <30 kg/m^2, Months 1 to 3, monthly LOCF, ITT, 2 mg TID

## Cc1nccn1C[C@H]1CCc2c(c3cccc4c3n2CCC4)C1=O [Cilansetron, (R)-(−)-4,5,6,8,9,10-hexahydro-10-[(2-methyl-1H-imidazol-1-yl)methyl]-11H-pyrido-[3,2,1-jk]-carbazol-11-one]
[1]
  Overall responder rate, adequate relief of IBS symptoms: 234 (59) n (%)
  Overall responder rate, adequate relief of abdominal pain/discomfort: 239 (61) n (%)
  Overall responder rate, adequate relief of abnormal bowel habits: 253 (64) n (%)
[2]
  Subjects who were responders for One month, Abdominal pain/discomfort: 61 (15) n (%)
  Subjects who were responders for One month, Abnormal bowel habits: 49 (12) n (%)
  Subjects who were responders for One month, IBS symptoms: 55 (14) n (%)
  Subjects who were responders for Three months, Abdominal pain/discomfort: 159 (40) n (%)
  Subjects who were responders for Three months, Abnormal bowel habits: 165 (42) n (%)
  Subjects who were responders for Three months, IBS symptoms: 150 (38) n (%)
  Subjects who were responders for Two months, Abdominal pain/discomfort: 70 (18) n (%)
  Subjects who were responders for Two months, Abnormal bowel habits: 83 (21) n (%)
  Subjects who were responders for Two months, IBS symptoms: 80 (20) n (%)
  Subjects who were responders for Zero months, Abdominal pain/discomfort: 105 (27) n (%)
  Subjects who were responders for Zero months, Abnormal bowel habits: 98 (25) n (%)
  Subjects who were responders for Zero months, IBS symptoms: 110 (28) n (%)
[3]
  Overall responder rate, adequate relief of IBS symptoms: 219 (55) n (%)
  Overall responder rate, adequate relief of abdominal pain/discomfort: 221 (56) n (%)
  Overall responder rate, adequate relief of abnormal bowel habits: 243 (62) n (%)
[4]
  Subjects who were responders for Five months, Abdominal pain/discomfort: 53 (13) n (%)
  Subjects who were responders for Five months, Abnormal bowel habits: 61 (15) n (%)
  Subjects who were responders for Five months, IBS symptoms: 58 (15) n (%)
  Subjects who were responders for Four months, Abdominal pain/discomfort: 41 (10) n (%)
  Subjects who were responders for Four months, Abnormal bowel habits: 41 (10) n (%)
  Subjects who were responders for Four months, IBS symptoms: 52 (13) n (%)
  Subjects who were responders for One month, Abdominal pain/discomfort: 26 (7) n (%)
  Subjects who were responders for One month, Abnormal bowel habits: 17 (4) n (%)
  Subjects who were responders for One month, IBS symptoms: 25 (6) n (%)
  Subjects who were responders for Six months, Abdominal pain/discomfort: 133 (34) n (%)
  Subjects who were responders for Six months, Abnormal bowel habits: 136 (34) n (%)
  Subjects who were responders for Six months, IBS symptoms: 121 (31) n (%)
  Subjects who were responders for Three months, Abdominal pain/discomfort: 31 (8) n (%)
  Subjects who were responders for Three months, Abnormal bowel habits: 33 (8) n (%)
  Subjects who were responders for Three months, IBS symptoms: 25 (6) n (%)
  Subjects who were responders for Two months, Abdominal pain/discomfort: 26 (7) n (%)
  Subjects who were responders for Two months, Abnormal bowel habits: 22 (6) n (%)
  Subjects who were responders for Two months, IBS symptoms: 24 (6) n (%)
  Subjects who were responders for Zero months, Abdominal pain/discomfort: 85 (22) n (%)
  Subjects who were responders for Zero months, Abnormal bowel habits: 85 (22) n (%)
  Subjects who were responders for Zero months, IBS symptoms: 90 (23) n (%)
females
  Overall responder rate, IBS symptoms: 63%
  Overall responder rate, abdominal pain/discomfort: 64%
  Overall responder rate, abnormal bowel habits: 67%
males
  Overall responder rate, IBS symptoms: 55%
  Overall responder rate, abdominal pain/discomfort: 57%
  Overall responder rate, abnormal bowel habits: 60%
Observed case
  Overall responder rate, abdominal pain/discomfort: 61%
  Overall responder rate, abnormal bowel habits: 64%
Observed case, ITT
  Overall responder rate, IBS symptoms: 59%
Weekly LOCF
  Overall responder rate, IBS symptoms: 60%
  Overall responder rate, abdominal pain/discomfort: 61%
  Overall responder rate, abnormal bowel habits: 63%
BMI≧30 kg/m^2
  Overall responder rate difference vs placebo across diary questions: −10% to −1
[5]
  Overall responder rate, adequate relief of IBS symptoms: 207 (63) n (%)
  Overall responder rate, adequate relief of abdominal pain/discomfort: 207 (63) n (%)
  Overall responder rate, adequate relief of abnormal bowel habits: 220 (67) n (%)
[6]
  Number of months a subject was a responder: One month (Abdominal pain/discomfort): 51 (15) n (%)
  Number of months a subject was a responder: One month (Abnormal bowel habits): 39 (12) n (%)
  Number of months a subject was a responder: One month (IBS symptoms): 49 (15) n (%)
  Number of months a subject was a responder: Three months (Abdominal pain/discomfort): 139 (42) n (%)
  Number of months a subject was a responder: Three months (Abnormal bowel habits): 144 (44) n (%)
